Experimental data reported in patent publication US9932340B2, “Substituted indoles” (AbbVie Inc., priority 2014, dated 2018).

Biological target: SUV420H1 enzyme (Homo sapiens, UniProt Q4FZB7)
Assay: TR-FRET SAH SUV420H1 enzyme inhibition assay
Type: biochemical
Settings: Histone Peptide H4(8-30)me1 and SAM, overnight at room temp, TR-FRET detection of SAH, read-out: TR-FRET SAH_SUV420H1 IC50
Experimental: Test compounds were dispensed by a Labcyte Echo in 384-well low volume assay plates with 3-fold serial dilutions from 50 μM to 0.00075 μM. 5 μL of SUV420H1 enzyme (Abbvie) at 90 nM was added to all wells except the no enzyme control wells, and incubated for 30 minutes at room temp before 5 μL of Histone Peptide H4(8-30)me1 (Anaspec) at 5 nM and SAM at 4 nM was added to all wells. The plates were incubated in a humidified chamber overnight at room temp and then 10 μL of the detection reagent that contained RIPA buffer (50 mM Tris-HCl, pH 8.0, 150 mM sodium chloride, 1.0% Igepal CA-630 (NP-40), 0.5% sodium deoxycholate and 0.1% sodium dodecyl sulfate) (Sigma) with 2 nM of Terbium chelate anti S-adenosyl-L-homocysteine (SAH) (Abbvie) antibody and Oregon Green labeled SAH at 4 nM was added. The plates were further incubated for 4 hours at room temperature. The plates were read in a Perkin Elmer Envision using a TR-FRET protocol with Excitation set at 335 nm and Emission at 520 and 495 nm. To generate dose response curves the data is normalized to percent inhibition by setting the average of the plus and minus enzyme control wells to 0% and 100% inhibition respectively. The IC50 values for the compounds are generated by fitting the normalized data with Accelrys Assay Explorer 3.3 to a sigmoidal curve model using […] regression, Y=(100*x^n)/(K^n+x^n), where Y is the measured response, x is the compound concentration, n is the Hill Slope and K is the IC50 and the lower and higher asymptotes are constrained to 0 and 100 respectively.

SUV420H1 enzyme, sequence (Q4FZB7 whole entry): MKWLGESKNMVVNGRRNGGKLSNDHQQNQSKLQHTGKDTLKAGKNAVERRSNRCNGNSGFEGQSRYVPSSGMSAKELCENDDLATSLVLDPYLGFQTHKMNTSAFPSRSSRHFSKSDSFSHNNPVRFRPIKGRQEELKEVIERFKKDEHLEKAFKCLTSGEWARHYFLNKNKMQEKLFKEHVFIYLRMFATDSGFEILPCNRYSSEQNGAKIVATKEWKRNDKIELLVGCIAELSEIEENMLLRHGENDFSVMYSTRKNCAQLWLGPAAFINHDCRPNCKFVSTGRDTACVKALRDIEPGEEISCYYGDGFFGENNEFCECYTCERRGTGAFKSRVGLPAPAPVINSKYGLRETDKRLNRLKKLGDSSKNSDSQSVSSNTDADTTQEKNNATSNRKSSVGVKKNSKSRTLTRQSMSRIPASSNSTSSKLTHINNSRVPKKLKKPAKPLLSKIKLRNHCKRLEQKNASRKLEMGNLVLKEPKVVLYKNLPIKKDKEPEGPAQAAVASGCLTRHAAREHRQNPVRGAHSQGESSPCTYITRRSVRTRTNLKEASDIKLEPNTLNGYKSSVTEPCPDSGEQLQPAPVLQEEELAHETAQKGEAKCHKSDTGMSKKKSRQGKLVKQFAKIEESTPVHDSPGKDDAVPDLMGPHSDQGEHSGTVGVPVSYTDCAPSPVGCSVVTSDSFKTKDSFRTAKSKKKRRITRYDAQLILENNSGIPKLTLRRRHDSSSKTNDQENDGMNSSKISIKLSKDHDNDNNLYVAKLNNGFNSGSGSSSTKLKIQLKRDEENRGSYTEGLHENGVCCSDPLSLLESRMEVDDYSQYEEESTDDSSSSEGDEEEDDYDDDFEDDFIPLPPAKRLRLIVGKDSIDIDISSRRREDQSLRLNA

Molecule	IC50
4-(aminomethyl)-N-({7-[(6-amino-9H-purin-9-yl)methyl]-5-(4,4-difluorocyclohexyl)-1H-indol-2-yl}methyl)-2-methylbenzamide [Example 301]	0.75 µM
4-{[({7-[(6-amino-9H-purin-9-yl)methyl]-5-chloro-1H-indol-2-yl}methyl)amino]methyl}-N,N-dimethylbenzamide [Example 318]	3.49 µM
Nc1ncnc2c1ncn2Cc1cccc2c(Br)c[nH]c12 [Example 1, 9-[(3-bromo-1H-indol-7-yl)methyl]-9H-purin-6-amine]	> 50 µM
CNC(=O)CCc1c[nH]c2c(Cn3cnc4c(N)ncnc43)cccc12 [Example 2, 3-{7-[(6-amino-9H-purin-9-yl)methyl]-1H-indol-3-yl}-N-methylpropanamide]	36.9 µM
CN(C)C(=O)CCc1c[nH]c2c(Cn3cnc4c(N)ncnc43)cccc12 [Example 3, 3-{7-[(6-amino-9H-purin-9-yl)methyl]-1H-indol-3-yl}-N,N-dimethylpropanamide]	35 µM
Cc1nc(N)c2ncn(Cc3cccc4cc[nH]c34)c2n1 [Example 4, 9-(1H-indol-7-ylmethyl)-2-methyl-9H-purin-6-amine]	14.1 µM
Nc1ncnc2c1ncn2Cc1cccc2cc[nH]c12 [Example 5, 9-(1H-indol-7-ylmethyl)-9H-purin-6-amine]	13.9 µM
Nc1nc(C2CC2)nc2c1ncn2Cc1cccc2cc[nH]c12 [Example 6, 2-cyclopropyl-9-(1H-indol-7-ylmethyl)-9H-purin-6-amine]	1.46 µM
Nc1ncnc2c1ncn2Cc1cc(Cl)cc2cc(CO)[nH]c12 [Example 7, {7-[(6-amino-9H-purin-9-yl)methyl]-5-chloro-1H-indol-2-yl}methanol]	22.2 µM
NCc1cc2cccc(Cn3cnc4c(N)ncnc43)c2[nH]1 [Example 8, 9-{[2-(aminomethyl)-1H-indol-7-yl]methyl}-9H-purin-6-amine]	2.82 µM
NCc1cc2cc(Cl)cc(Cn3cnc4c(N)ncnc43)c2[nH]1 [Example 9, 9-{[2-(aminomethyl)-5-chloro-1H-indol-7-yl]methyl}-9H-purin-6-amine]	1.17 µM
C=Cc1cc(Cn2cnc3c(N)ncnc32)c2[nH]c(CN)cc2c1 [Example 10, 9-{[2-(aminomethyl)-5-ethenyl-1H-indol-7-yl]methyl}-9H-purin-6-amine]	1.87 µM
NCc1cc2cc(-c3cccnc3)cc(Cn3cnc4c(N)ncnc43)c2[nH]1 [Example 20, 9-{[2-(aminomethyl)-5-(pyridin-3-yl)-1H-indol-7-yl]methyl}-9H-purin-6-amine]	0.866 µM
NCc1cc2cc(-c3ccncc3)cc(Cn3cnc4c(N)ncnc43)c2[nH]1 [Example 21, 9-{[2-(aminomethyl)-5-(pyridin-4-yl)-1H-indol-7-yl]methyl}-9H-purin-6-amine]	0.78 µM
NCc1cc2cc(-c3ccccc3F)cc(Cn3cnc4c(N)ncnc43)c2[nH]1 [Example 27, 9-{[2-(aminomethyl)-5-(2-fluorophenyl)-1H-indol-7-yl]methyl}-9H-purin-6-amine]	1.21 µM
Cc1ccc(-c2cc(Cn3cnc4c(N)ncnc43)c3[nH]c(CN)cc3c2)cc1 [Example 30, 9-{[2-(aminomethyl)-5-(4-methylphenyl)-1H-indol-7-yl]methyl}-9H-purin-6-amine]	1.17 µM
Cc1cccc(-c2cc(Cn3cnc4c(N)ncnc43)c3[nH]c(CN)cc3c2)c1 [Example 31, 9-{[2-(aminomethyl)-5-(3-methylphenyl)-1H-indol-7-yl]methyl}-9H-purin-6-amine]	0.901 µM
Cc1ccccc1-c1cc(Cn2cnc3c(N)ncnc32)c2[nH]c(CN)cc2c1 [Example 32, 9-{[2-(aminomethyl)-5-(2-methylphenyl)-1H-indol-7-yl]methyl}-9H-purin-6-amine]	3.33 µM
COc1ccc(-c2cc(Cn3cnc4c(N)ncnc43)c3[nH]c(CN)cc3c2)cc1 [Example 34, 9-{[2-(aminomethyl)-5-(4-methoxyphenyl)-1H-indol-7-yl]methyl}-9H-purin-6-amine]	0.723 µM
COc1cccc(-c2cc(Cn3cnc4c(N)ncnc43)c3[nH]c(CN)cc3c2)c1 [Example 35, 9-{[2-(aminomethyl)-5-(3-methoxyphenyl)-1H-indol-7-yl]methyl}-9H-purin-6-amine]	1.09 µM
COc1ccccc1-c1cc(Cn2cnc3c(N)ncnc32)c2[nH]c(CN)cc2c1 [Example 36, 9-{[2-(aminomethyl)-5-(2-methoxyphenyl)-1H-indol-7-yl]methyl}-9H-purin-6-amine]	2.41 µM
N#Cc1ccc(-c2cc(Cn3cnc4c(N)ncnc43)c3[nH]c(CN)cc3c2)cc1 [Example 38, 4-{2-(aminomethyl)-7-[(6-amino-9H-purin-9-yl)methyl]-1H-indol-5-yl}benzonitrile]	0.81 µM

Now those with a lower IC50, led by results:

IC50	Molecule
0.635 µM	CC(=O)N1CCC(c2cc(Cn3cnc4c(N)ncnc43)c3[nH]c(CN)cc3c2)CC1 [Example 17, 1-(4-{2-(aminomethyl)-7-[(6-amino-9H-purin-9-yl)methyl]-1H-indol-5-yl}piperidin-1-yl)ethanone]
0.561 µM	Cn1cc(-c2cc(Cn3cnc4c(N)ncnc43)c3[nH]c(CN)cc3c2)cn1 [Example 18, 9-{[2-(aminomethyl)-5-(1-methyl-1H-pyrazol-4-yl)-1H-indol-7-yl]methyl}-9H-purin-6-amine]
0.528 µM	NCc1cc2cc(-c3ccc(CO)cc3)cc(Cn3cnc4c(N)ncnc43)c2[nH]1 [Example 33, (4-{2-(aminomethyl)-7-[(6-amino-9H-purin-9-yl)methyl]-1H-indol-5-yl}phenyl)methanol]
0.474 µM	NCc1cc2cc(-c3ccc(F)cc3)cc(Cn3cnc4c(N)ncnc43)c2[nH]1 [Example 26, 9-{[2-(aminomethyl)-5-(4-fluorophenyl)-1H-indol-7-yl]methyl}-9H-purin-6-amine]
0.458 µM	NCc1cc2cc(-c3ccccc3)cc(Cn3cnc4c(N)ncnc43)c2[nH]1 [Example 22, 9-{[2-(aminomethyl)-5-phenyl-1H-indol-7-yl]methyl}-9H-purin-6-amine]
0.44 µM	CC(=O)N1CCC=C(c2cc(Cn3cnc4c(N)ncnc43)c3[nH]c(CN)cc3c2)C1 [Example 16, 1-[5-{2-(aminomethyl)-7-[(6-amino-9H-purin-9-yl)methyl]-1H-indol-5-yl}-3,6-dihydropyridin-1(2H)-yl]ethanone]
0.426 µM	COc1ccc(-c2cc(Cn3cnc4c(N)ncnc43)c3[nH]c(CN)cc3c2)cn1 [Example 28, 9-{[2-(aminomethyl)-5-(6-methoxypyridin-3-yl)-1H-indol-7-yl]methyl}-9H-purin-6-amine]
0.425 µM	NCc1cc2cc(-c3cccc(C(N)=O)c3)cc(Cn3cnc4c(N)ncnc43)c2[nH]1 [Example 40, 3-{2-(aminomethyl)-7-[(6-amino-9H-purin-9-yl)methyl]-1H-indol-5-yl}benzamide]
0.345 µM	N#Cc1cccc(-c2cc(Cn3cnc4c(N)ncnc43)c3[nH]c(CN)cc3c2)c1 [Example 39, 3-{2-(aminomethyl)-7-[(6-amino-9H-purin-9-yl)methyl]-1H-indol-5-yl}benzonitrile]
0.334 µM	NCc1cc2cc(C3=CCOCC3)cc(Cn3cnc4c(N)ncnc43)c2[nH]1 [Example 12, 9-{[2-(aminomethyl)-5-(3,6-dihydro-2H-pyran-4-yl)-1H-indol-7-yl]methyl}-9H-purin-6-amine]
0.321 µM	CS(=O)(=O)c1ccc(-c2cc(Cn3cnc4c(N)ncnc43)c3[nH]c(CN)cc3c2)cc1 [Example 37, 9-({2-(aminomethyl)-5-[4-(methylsulfonyl)phenyl]-1H-indol-7-yl}methyl)-9H-purin-6-amine]
0.252 µM	NCc1cc2cc(-c3ccc(S(N)(=O)=O)cc3)cc(Cn3cnc4c(N)ncnc43)c2[nH]1 [Example 29, 4-{2-(aminomethyl)-7-[(6-amino-9H-purin-9-yl)methyl]-1H-indol-5-yl}benzenesulfonamide]
0.186 µM	NCc1cc2cc(C3=CCC(F)(F)CC3)cc(Cn3cnc4c(N)ncnc43)c2[nH]1 [Example 14, 9-{[2-(aminomethyl)-5-(4,4-difluorocyclohex-1-en-1-yl)-1H-indol-7-yl]methyl}-9H-purin-6-amine]
0.178 µM	NCc1cc2cc(C3=CCCC3)cc(Cn3cnc4c(N)ncnc43)c2[nH]1 [Example 11, 9-{[2-(aminomethyl)-5-(cyclopent-1-en-1-yl)-1H-indol-7-yl]methyl}-9H-purin-6-amine]
0.154 µM	CC(=O)N1CC=C(c2cc(Cn3cnc4c(N)ncnc43)c3[nH]c(CN)cc3c2)CC1 [Example 15, 1-[4-{2-(aminomethyl)-7-[(6-amino-9H-purin-9-yl)methyl]-1H-indol-5-yl}-3,6-dihydropyridin-1(2H)-yl]ethanone]
0.135 µM	NCc1cc2cc(C3=CCNCC3)cc(Cn3cnc4c(N)ncnc43)c2[nH]1 [Example 13, 9-{[2-(aminomethyl)-5-(1,2,3,6-tetrahydropyridin-4-yl)-1H-indol-7-yl]methyl}-9H-purin-6-amine]
